Measurements taken from patent US8785655B2, “Ionic liquid solvents” (Dublin City University, priority 2009, dated 2014).

How the values were obtained:
[1] = system: Staphylococcus aureus CCM 4516/08; experiment: Screen against bacteria, MIC/IC80; assay type: cell-based; details: SA
[2] = system: Staphylococcus epidermidis H 6966/08; experiment: Screen against bacteria, MIC/IC80; assay type: cell-based; details: SE
[3] = system: Enterococcus sp. J 14365/08; experiment: Screen against bacteria, MIC/IC80; assay type: cell-based; details: EF
[4] = system: Escherichia coli CCM4517; experiment: Screen against bacteria, MIC/IC80; assay type: cell-based; details: EC
[5] = system: Klebsiella pneumoniae D 11750/08; experiment: Screen against bacteria, MIC/IC80; assay type: cell-based; details: KP
[6] = system: Pseudomonas aeruginosa CCM 1961; experiment: Screen against bacteria, MIC/IC80; assay type: cell-based; details: PA
[7] = system: Candida albicans ATCC 44859; experiment: In vitro antifungal activity, MIC by microdilution (NCCLS M27-A)
[8] = system: Candida parapsilosis ATCC 22019; experiment: as above; details: CP
[9] = system: Candida krusei ATCC 6258; experiment: as above
[10] = system: Candida tropicalis 156; experiment: as above; details: CT
[11] = system: Candida glabrata 20/l; experiment: as above; details: CG
[12] = system: Candida lusitaniae 2446/l; experiment: as above; details: CL
[13] = system: Aspergillus fumigatus 231; experiment: as above; details: AF
[14] = system: Absidia corymbifera 272; experiment: as above; details: AC
[15] = system: Trichophyton mentagrophytes 445; experiment: as above; details: TM
[16] = system: Staphylococcus aureus H 5996/08 Methiciline-resistant; experiment: Screen against bacteria, MIC/IC80; assay type: cell-based; details: MRSA
[17] = system: Klebsiella pneumoniae J 14368/08 ESBL-positive; experiment: Screen against bacteria, MIC/IC80; assay type: cell-based; details: KP-E
[18] = system: Candida albicans ATCC 90028; experiment: In vitro antifungal activity, MIC by microdilution (NCCLS M27-A)
[19] = system: Candida krusei E28; experiment: as above

| MIC/IC80 ([1]; 24 h) | MIC/IC80 ([2]; 24 h) | MIC/IC80 ([3]; 24 h) | MIC/IC80 ([4]; 24 h) | MIC/IC80 ([5]; 24 h) | MIC/IC80 ([6]; 24 h) | MIC/IC80 ([7]; CA1, 24 h) | MIC/IC80 ([8]; 24 h) | MIC/IC80 ([9]; CK1, 24 h) | MIC/IC80 ([10]; 24 h) | MIC/IC80 ([11]; 24 h) | MIC/IC80 ([12]; 24 h) | MIC/IC80 ([13]; 24 h) | MIC/IC80 ([14]; 24 h) | MIC/IC80 ([15]; 72 h) | MIC/IC80 ([1]; 48 h) | MIC/IC80 ([16]; 24 h) | MIC/IC80 ([16]; 48 h) | MIC/IC80 ([2]; 48 h) | MIC/IC80 ([3]; 48 h) | SMILES | also measured |
| --- | --- | --- | --- | --- | --- | --- | --- | --- | --- | --- | --- | --- | --- | --- | --- | --- | --- | --- | --- | --- | --- |
| >1000 µM | >1000 µM | >1000 µM | >1000 µM | >1000 µM | >1000 µM | >1000 µM | >1000 µM | >1000 µM | >1000 µM | >1000 µM | >1000 µM | >1000 µM | >1000 µM | >1000 µM |  |  |  |  |  | COC(=O)C(OC(=O)C[n+]1ccn(C)c1)c1ccccc1 (stereo not drawn) [KG86, RS-3-methyl-1-[1-(methoxycarbonyl)-1-phenylmethoxycarbonylmethyl]imidazolium octyl sulphate] |  |
| >1000 µM | >1000 µM | >1000 µM | >1000 µM | >1000 µM | >1000 µM | >1000 µM | >1000 µM | >1000 µM | >1000 µM | >1000 µM | >1000 µM | >1000 µM | >1000 µM | >1000 µM | >1000 µM | >1000 µM | >1000 µM | >1000 µM | >1000 µM | COC(=O)C(OC(=O)C[n+]1ccn(C)c1)c1ccccc1 (stereo not drawn) [KG89, RS-3-methyl-1-[1-(methoxycarbonyl)-1-phenylmethoxycarbonylmethyl]imidazolium bromide] | MIC/IC80 ([4]; 48 h): >1000 µM; MIC/IC80 ([5]; 48 h): >1000 µM; MIC/IC80 ([17]; 24 h): >1000 µM; MIC/IC80 ([17]; 48 h): >1000 µM; MIC/IC80 ([6]; 48 h): >1000 µM; MIC/IC80 ([7]; CA1, 48 h): >1000 µM; MIC/IC80 ([18]; CA2, 24 h): >1000 µM; MIC/IC80 ([18]; CA2, 48 h): >1000 µM; MIC/IC80 ([8]; 48 h): >1000 µM; MIC/IC80 ([9]; CK1, 48 h): >1000 µM; MIC/IC80 ([19]; CK2, 24 h): >1000 µM; MIC/IC80 ([19]; CK2, 48 h): >1000 µM; MIC/IC80 ([10]; 48 h): >1000 µM; MIC/IC80 ([11]; 48 h): >1000 µM; MIC/IC80 ([12]; 48 h): >1000 µM; MIC/IC80 ([13]; 48 h): >1000 µM; MIC/IC80 ([14]; 48 h): >1000 µM; MIC/IC80 ([15]; 120 h): >1000 µM |
| >1000 µM | >1000 µM | >1000 µM | >1000 µM | >1000 µM | >1000 µM | >1000 µM | >1000 µM | >1000 µM | >1000 µM | >1000 µM | >1000 µM | >1000 µM | >1000 µM | >1000 µM | >1000 µM | >1000 µM | >1000 µM | >1000 µM | >1000 µM | COC(=O)[C@H](OC(=O)C[n+]1ccn(C)c1)c1ccccc1 [KG90, R-3-methyl-1-[1-(methoxycarbonyl)-1-phenylmethoxycarbonylmethyl]imidazolium bromide] | MIC/IC80 ([4]; 48 h): >1000 µM; MIC/IC80 ([5]; 48 h): >1000 µM; MIC/IC80 ([17]; 24 h): >1000 µM; MIC/IC80 ([17]; 48 h): >1000 µM; MIC/IC80 ([6]; 48 h): >1000 µM; MIC/IC80 ([7]; CA1, 48 h): >1000 µM; MIC/IC80 ([18]; CA2, 24 h): >1000 µM; MIC/IC80 ([18]; CA2, 48 h): >1000 µM; MIC/IC80 ([8]; 48 h): >1000 µM; MIC/IC80 ([9]; CK1, 48 h): >1000 µM; MIC/IC80 ([19]; CK2, 24 h): >1000 µM; MIC/IC80 ([19]; CK2, 48 h): >1000 µM; MIC/IC80 ([10]; 48 h): >1000 µM; MIC/IC80 ([11]; 48 h): >1000 µM; MIC/IC80 ([12]; 48 h): >1000 µM; MIC/IC80 ([13]; 48 h): >1000 µM; MIC/IC80 ([14]; 48 h): >1000 µM; MIC/IC80 ([15]; 120 h): >1000 µM |

| SMILES | MIC/IC80 ([1]; 24 h) | MIC/IC80 ([2]; 24 h) | MIC/IC80 ([3]; 24 h) | MIC/IC80 ([4]; 24 h) | MIC/IC80 ([5]; 24 h) | MIC/IC80 ([6]; 24 h) | MIC/IC80 ([7]; CA1, 24 h) | MIC/IC80 ([8]; 24 h) | MIC/IC80 ([9]; CK1, 24 h) | MIC/IC80 ([10]; 24 h) | MIC/IC80 ([11]; 24 h) | MIC/IC80 ([12]; 24 h) | MIC/IC80 ([13]; 24 h) | MIC/IC80 ([14]; 24 h) | MIC/IC80 ([15]; 72 h) | MIC/IC80 ([1]; 48 h) | MIC/IC80 ([16]; 24 h) | MIC/IC80 ([16]; 48 h) | MIC/IC80 ([2]; 48 h) | MIC/IC80 ([3]; 48 h) | also measured |
| --- | --- | --- | --- | --- | --- | --- | --- | --- | --- | --- | --- | --- | --- | --- | --- | --- | --- | --- | --- | --- | --- |
| CCCCCCCCOS(=O)(=O)[O-].COC(=O)[C@@H](OC(=O)Cn1cc[n+](C)c1)c1ccccc1 [KG88, S-3-methyl-1-[1-(methoxycarbonyl)-1-phenylmethoxycarbonylmethyl]imidazolium octyl sulphate] | >1000 µM | >1000 µM | >1000 µM | >1000 µM | >1000 µM | >1000 µM | >1000 µM | >1000 µM | >1000 µM | >1000 µM | >1000 µM | >1000 µM | >1000 µM | >1000 µM | >1000 µM | >1000 µM | >1000 µM | >1000 µM | >1000 µM | >1000 µM | MIC/IC80 ([4]; 48 h): >1000 µM; MIC/IC80 ([5]; 48 h): >1000 µM; MIC/IC80 ([17]; 24 h): >1000 µM; MIC/IC80 ([17]; 48 h): >1000 µM; MIC/IC80 ([6]; 48 h): >1000 µM; MIC/IC80 ([7]; CA1, 48 h): >1000 µM; MIC/IC80 ([18]; CA2, 24 h): >1000 µM; MIC/IC80 ([18]; CA2, 48 h): >1000 µM; MIC/IC80 ([8]; 48 h): >1000 µM; MIC/IC80 ([9]; CK1, 48 h): >1000 µM; MIC/IC80 ([19]; CK2, 24 h): >1000 µM; MIC/IC80 ([19]; CK2, 48 h): >1000 µM; MIC/IC80 ([10]; 48 h): >1000 µM; MIC/IC80 ([11]; 48 h): >1000 µM; MIC/IC80 ([12]; 48 h): >1000 µM; MIC/IC80 ([13]; 48 h): >1000 µM; MIC/IC80 ([14]; 48 h): >1000 µM; MIC/IC80 ([15]; 120 h): >1000 µM |
